Assay results published in patent US20240398781A1, “SPIROCYCLIC CYCLIC MODULATORS OF CHOLESTEROL BIOSYNTHESIS AND THEIR USE FOR PROMOTING REMYELINATION” (GENENTECH, INC., priority 2021, published 2024).

Experiments:
[1] = target: human emopamil binding protein and human 7-dehydrocholesterol reductase co-expressing cells (hEBP-DHCR7 membrane) (Homo sapiens (Human), UniProt Q15125); assay: Radioligand filter binding assay on hEBP-DHCR7 membrane; conditions: [3H]-(S)-6-(2-Methyl-3-(6-(trifluoromethyl)pyridin-3-yl)propyl)-2-thia-6-azaspiro[3.4]octane 2,2-dioxide radioligand, HEK293 membrane co-expressing hEBP and hDHCR7
Chain of human emopamil binding protein and human 7-dehydrocholesterol reductase co-expressing cells (hEBP-DHCR7 membrane) (Q15125 whole entry): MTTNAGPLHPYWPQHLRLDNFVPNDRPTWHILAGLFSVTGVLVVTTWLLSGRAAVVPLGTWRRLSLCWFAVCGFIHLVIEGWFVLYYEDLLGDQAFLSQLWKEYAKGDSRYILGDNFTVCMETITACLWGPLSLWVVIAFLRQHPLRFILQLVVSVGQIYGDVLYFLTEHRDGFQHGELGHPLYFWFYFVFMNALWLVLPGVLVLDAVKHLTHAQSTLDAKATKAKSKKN
Summary of the method: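 HEK293 cells transiently co-expressing human EBP and DHCR7 supplied whole-cell membranes (10 μg/well), incubated 3 h at 22 °C with [3H]-labelled spiro-octane dioxide ligand (added at 25 nM) and compound (0.06-5000 nM final, 8 doses, n=2). Bound ligand was collected on PEI-treated GF/B filters and counted by scintillation. IC50 was Hill-fitted from % inhibition and reported as Ki.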

[2] = system: EBP (zymostenol accumulation in EpiSC-derived OPCs); assay: GC/MS-based sterol profiling, zymostenol accumulation in OPCs; type: cell-based, mouse; conditions: Mus musculus, 24 h, EpiSC-derived OPCs, 24 hr treatment, 8 doses from 0.15 nM to 333 nM; read-out: Zymostenol GCMS EC50
Summary of the method: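 EpiSC-derived OPCs (100,000/well) were treated 24 h in N2B27 without growth factors. Sterols were TMS-derivatized and analysed by GC/MS full-scan EI, quantified against cholesterol-d7. Zymostenol was normalized to the level after 24 h with 100 nM positive control reference.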

[3] = target: human EBP (Homo sapiens (Human), UniProt Q15125); assay: Competition binding assay (SPA, [3H]-Ifenprodil) to determine compound affinity to EBP; conditions: [3H]-Ifenprodil 10 nM, HEK293 membrane overexpressing human EBP, Ki=IC50/(1+[L]/Kd); read-out: hEBP SPA Ki
Chain of human EBP (Q15125 whole entry): as above
Experimental: Membrane preparation: To examine compound binding affinity to EBP, human EBP was overexpressed in human embryonic kidney 293 cells. Cell pellet was lysed in 10 times weight binding buffer (50 mM Tris, 5 mM MgCl2, 0.1 mM EDTA, lx protease inhibitor cocktail, pH 7.5) on ice by using a dounce homogenizer. The solution was centrifuged at 25,000 g for 50 min at 4° C. The membrane pellet was re-suspended in binding buffer and run through a 25 5/8 gauge needle. After checking the concentration by Bradford assay, the whole cell membrane solution was adjusted to 20 mg/mL and stored at −80° C.
This binding solution was centrifuged at 400 g for 5 minutes to collect the bead/membrane mixture. After re-suspending the pellet in binding buffer at the same calculated volume with 0.01% BSA (Sigma A1933), the bead/membrane mixture was added in 384-well low-binding surface plate (PerkinElmer Cat #6057480) at 25 μl/well. Radioligand at different concentrations with and without the non-radio-labeled same ligand 5 uM (for nonspecific and total signal, respectively) was added to bring final volume to 50 µl/well with DMSO concentration at 0.1%. At equilibrium (3 hours after ligand addition), radiometric signal CPM was counted by using a Microbeta2 microplate counter (Perkinelmer).
Competition binding assay to determine compound affinity: The same conditions of the radioligand Kd study were used for compound single dose percentage inhibition and equilibrium dissociation constant Ki examinations, except 50 nL compound DMSO stock was pre-added in 384-well low-binding surface plate (PerkinElmer Cat #6057480) by Echo 550 (Labcyte) to reach the final concentration for single dose test at 1 uM, and dose response test from 0.06 nM to 5 uM (8 dose, 5 times dilution). A pre-incubated bead/membrane mixture was added in compound plate at 0.3 mg beads and […] membrane per well. […] At equilibrium (3 hours after ligand addition), radiometric signal was counted as described above. The percentage inhibition of compound at each testing concentration was calculated by normalizing each condition's CPM readout to full block (5 uM non-radiolabeled ligand) and non-block (DMSO) control conditions. Compound binding inhibition IC50 was determined by nonlinear regression fitting of percentage inhibition plot against compound concentration. Compound Ki was calculated from the equation Ki=IC50/(1+[L]/Kd), which [L] was radioligand concentration used in assay. All tests had N bigger or equal to 2.

[4] = system: EpiSC-derived OPCs; assay: In vitro phenotypic screening of OPCs (MBP staining, high-content imaging); type: cell-based, mouse; conditions: Mus musculus, 72 h, percentage of MBP+ oligodendrocytes, 3 days, 0.5 nM to 1000 nM; read-out: OPC EC50
Summary of the method: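 Readout: high-content imaging of MBP immunostaining around DAPI nuclei, giving percent oligodendrocytes, with EC50 from a Levenberg-Marquardt Hill fit. Epiblast stem cell-derived OPCs were plated on laminin at 150,000/cm^2 in growth-factor-free N2B27. They were exposed 3 days to an 8-point series, 0.5-1000 nM final, in two or more independent platings.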

Compound | Ki [1] | EC50 [2] | Ki [3] | EC50 [4]
CC(C)n1nc(C(F)(F)F)cc1[C@@H]1CC[C@@H](N2CCC3(C2)CS(=O)(=O)C3)C1 (single isomer, unassigned) [10D*] | 33.1 nM | 44 nM | 43 nM | –
CC(C)n1nc(-c2ccc(C(F)(F)F)nc2)nc1[C@@H]1CC[C@H](N2CCC3(C2)CS(=O)(=O)C3)C1 (single isomer, unassigned) [17A*] | 24 nM | 2.1 nM | 22 nM | –
CC(C)n1nc(-c2ccc(C(F)(F)F)nc2)nc1[C@@H]1CC[C@@H](N2CCC3(C2)CS(=O)(=O)C3)C1 (single isomer, unassigned) [17C*] | – | 2.9 nM | 18 nM | 13 nM
Cc1cc(C(F)(F)F)cnc1[C@H]1CC[C@@H](N2CCC3(C2)CS(=O)(=O)C3)CC1 [Compound 47A, 6-((1s,4s)-4-(3-methyl-5-(trifluoromethyl)pyridin-2-yl)cyclohexyl)-2-thia-6-azaspiro[3.4]octane 2,2-dioxide] | 11 nM | 9.1 nM | 11 nM | –
O=S1(=O)CC2(CCN([C@H]3CC[C@H](c4cc(C(F)(F)F)ncc4Cl)CC3)C2)C1 [Compound 87, 6-((1r,4r)-4-(5-Chloro-2-(trifluoromethyl)pyridin-4-yl)cyclohexyl)-2-thia-6-azaspiro[3.4]octane 2,2-dioxide] | 12 nM | 8.8 nM | – | 33 nM
O=S1(=O)CC2(CCN([C@H]3CC[C@H](c4ccnc(C(F)(F)F)n4)CC3)C2)C1 [Compound 88, 6-((1r,4r)-4-(2-(Trifluoromethyl)pyrimidin-4-yl)cyclohexyl)-2-thia-6-azaspiro[3.4]octane 2,2-dioxide] | 73 nM | 16 nM | – | 110 nM
O=S1(=O)CCC2(CCN([C@H]3CC[C@H](c4ccc(C(F)(F)F)nc4)CC3)C2)CC1 [Compound 95A, 2-((1r,4r)-4-(6-(Trifluoromethyl)pyridin-3-yl)cyclohexyl)-8-thia-2-azaspiro[4.5]decane 8,8-dioxide] | 710 nM | 170 nM | – | 520 nM
O=S1(=O)CCC2(CCN([C@H]3CC[C@@H](c4ccc(C(F)(F)F)nc4)CC3)C2)CC1 [Compound 95B, 2-((1s,4s)-4-(6-(trifluoromethyl)pyridin-3-yl)cyclohexyl)-8-thia-2-azaspiro[4.5]decane 8,8-dioxide] | 170 nM | 22 nM | – | 43 nM
